The subject of one test is BxPC-3 cells. As to the kind of experiment: [3H]-Thymidine proliferation assay with BxPC-3 cells. It is filed as cell-based. The following applies: pancreatic cancer cells, 3 days, 3H-thymidine incorporation. As to the method:
1. Preparation of Cell Suspension • When BxPC-3 cells were 70-80% confluent, aspirated media. Washed the cells with 1×PBS. Trypsinized with trypsin-EDTA from the plate, collected cells from the tissue culture flask, centrifuged (500×g, 5 min) and resuspended in media.
2. Cell Plating. • Counted the cells and adjusted the cell density to 2,000/ml. Added 200 μl per well in a 96 well plate. Incubated plate for 24 h at 37° C. in a humidified atmosphere plus 5% CO2. Aspirated used media and replaced with 175 μl per well with media.
3. Substrate Addition. • Added 25 μl of compound (final concentration 10^−7 M, 5×10^−8 M, 10^−8M, 5×10^−9 M, 10^−10 M or 0 M) into each designated well. Incubated plates for 3 days at 37° C. in a humidified atmosphere plus 5% CO2.
4. ^3H-Thymidine Incorporation. • Added ^3H-thymidine at 0.02 μCi per well and incubated at 37° C. in a humidified atmosphere plus 5% CO2 for 6 h.
5. Plate Harvesting. • Aspirated all media and washed cells with 1×PBS. Trypsinized cells for 30 min at 37° C. in a humidified atmosphere plus 5% CO2. Harvested cells onto a 96 well filter plate (Millipore) using a Tomtec Cell Harvestor, according to manufacturers instructions.
6. Scintillation Counting. • Added 25 μl of scintillation fluid per well. Counted the plate using a scintillation counter. Results: Compound (20R)-I(e) inhibited BxPC-3 cell proliferation.

The next test deals with OVCAR-3 cells. Kind of test: [3H]-Thymidine proliferation assay with OVCAR-3 cells. It is filed as cell-based. To be noted: ovarian cancer cells, 6 days, 3H-thymidine incorporation. How it is done: 1. Preparation of Suspension • When OVCAR-3 cells were ˜50% confluent, aspirated media. Washed cells with 1×PBS. Trypsinized with trypsin-EDTA, collected cells from the tissue culture flask, centrifuged (200×g, 5 min) and resuspended in media.
2. Cell Plating. • Counted the cells and adjusted the cell density to 11.4×10^3 to provide 2000 cells in 175 μl (for 1 well). Distributed cell suspension into a 96 well plates at 175 μl (2000 cells) per well. Incubated plate for 24 h at 37° C. in a humidified atmosphere plus 5% CO2. • Substrate addition. • Added 25 μl of compound (final concentration 10^−7 M, 5×10^−8 M 10^−8 M, 5×10^−9 M, 10^−9 M, 10^−10M or 0 M) into each designated well. Incubated plates for 6 days without changing media and drugs at 37° C. in a humidified atmosphere plus 5% CO2.
3. [^3H]-Thymidine incorporation • Added ^3H-thymidine at 0.02 μCi per well and incubated at 37° C. in a humidified atmosphere plus 5% CO2 for 6 h.
4. Plate Harvesting. • Aspirated all media and washed cells with 1×PBS. Trypsinized cells for 30 min at 37° C. in a humidified atmosphere plus 5% CO2. Harvested cells onto a 96 well filter plate (Millipore) using a Tomtec Cell Harvestor, according to manufacturers instructions.
5. Scintillation Counting. • Added 25 μl of scintillation fluid per well. Counted the plate using a scintillation counter. Results: Compounds (20R)-I(a), (20R)-I(c) and (20R)-I(e) all inhibited the proliferation of OVCAR-3 cells.
For orientation: Uptake of a labelled nucleoside into DNA is a usual measure of proliferation.

The text below walks through data of patent US8906888B2, “Low-calcemic 16,23-diene 25-oxime analogs of 1α,25-dihydroxy vitamin D3” (Cytochroma Inc., priority 2005, dated 2014).

Consider `C=C1/C(=C\C=C2/CCC[C@]3(C)C([C@H](C)C/C=C/C(=NOC)C(C)(C)C)=CC[C@@H]23)C[C@@H](O)C[C@@H]1O` [(20R)-I(e)], for which the “Inhibition of BxPC-3 cell proliferation” value in the test with BxPC-3 cells is “inhibited”. Further, the “Inhibition of OVCAR-3 cell proliferation” value with OVCAR-3 cells is on record as “inhibited”.
